Experimental data taken from patent US20120219615A1, “Therapeutic Use of a TLR Agonist and Combination Therapy” (The Trustees of the University of Pennsylvania, priority 2010, published 2012).
pEC50: −log10 of the molar value.

Key:
[1] = molecular target: T1, TLR7 (Homo sapiens, UniProt Q9NYK1); assay: IFNα production in PBMCs (marker of TLR7 activation); format: cell-based; conditions: PBMCs from 15 healthy donors
T1 construct: expressed in transfected cells; host or cells: HEK293
T1 sequence (Q9NYK1 27-1049): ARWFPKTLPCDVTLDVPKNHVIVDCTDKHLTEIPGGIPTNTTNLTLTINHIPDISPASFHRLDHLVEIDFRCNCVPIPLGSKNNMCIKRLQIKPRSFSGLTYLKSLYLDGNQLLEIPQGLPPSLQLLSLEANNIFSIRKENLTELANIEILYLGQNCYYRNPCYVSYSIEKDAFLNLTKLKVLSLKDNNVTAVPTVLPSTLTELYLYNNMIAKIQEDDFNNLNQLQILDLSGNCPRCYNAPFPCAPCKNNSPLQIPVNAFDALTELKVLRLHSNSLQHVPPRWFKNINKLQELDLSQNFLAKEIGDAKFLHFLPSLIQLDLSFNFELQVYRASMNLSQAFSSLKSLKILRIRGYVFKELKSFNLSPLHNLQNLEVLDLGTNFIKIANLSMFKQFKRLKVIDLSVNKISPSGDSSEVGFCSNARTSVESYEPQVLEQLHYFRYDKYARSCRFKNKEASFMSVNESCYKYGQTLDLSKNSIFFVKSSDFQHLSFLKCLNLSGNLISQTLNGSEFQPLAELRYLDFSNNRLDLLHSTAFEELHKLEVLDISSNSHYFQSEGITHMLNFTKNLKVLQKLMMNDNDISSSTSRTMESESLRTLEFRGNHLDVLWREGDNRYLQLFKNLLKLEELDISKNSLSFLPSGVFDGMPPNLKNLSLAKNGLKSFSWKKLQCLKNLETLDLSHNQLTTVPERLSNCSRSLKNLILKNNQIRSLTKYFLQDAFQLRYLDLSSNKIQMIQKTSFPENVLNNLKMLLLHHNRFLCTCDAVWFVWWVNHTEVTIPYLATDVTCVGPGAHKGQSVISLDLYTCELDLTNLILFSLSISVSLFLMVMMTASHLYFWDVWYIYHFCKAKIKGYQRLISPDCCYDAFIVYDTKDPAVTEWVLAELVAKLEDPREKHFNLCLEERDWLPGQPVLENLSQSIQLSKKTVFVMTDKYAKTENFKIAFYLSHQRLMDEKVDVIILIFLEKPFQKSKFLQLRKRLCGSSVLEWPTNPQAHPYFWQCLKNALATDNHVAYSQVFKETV
Description: (§1) The half-maximal effective concentration (EC50) for VTX-2337 activation of TLR8 and TLR7 was assessed in peripheral blood mononuclear cells (PBMCs) from 15 healthy donors and also in HEK293 cells transfected with TLR8 or TLR7 and an NF-κB driven reporter gene. […] Also it was observed that VTX-2337 had no activity on TLR2, TLR3, TLR4, TLR5, TLR6, or TLR9 at concentrations up to 25 μM.

[2] = molecular target: T2, TLR8 (Homo sapiens, UniProt Q9NR97); assay: TNFα production in PBMCs (marker of TLR8 activation); format: cell-based
T2 construct: assessed in peripheral blood mononuclear cells (PBMCs) from 15 healthy donors; endogenous in cells; host or cells: PBMCs from 15 healthy donors
T2 sequence (Q9NR97 27-1041): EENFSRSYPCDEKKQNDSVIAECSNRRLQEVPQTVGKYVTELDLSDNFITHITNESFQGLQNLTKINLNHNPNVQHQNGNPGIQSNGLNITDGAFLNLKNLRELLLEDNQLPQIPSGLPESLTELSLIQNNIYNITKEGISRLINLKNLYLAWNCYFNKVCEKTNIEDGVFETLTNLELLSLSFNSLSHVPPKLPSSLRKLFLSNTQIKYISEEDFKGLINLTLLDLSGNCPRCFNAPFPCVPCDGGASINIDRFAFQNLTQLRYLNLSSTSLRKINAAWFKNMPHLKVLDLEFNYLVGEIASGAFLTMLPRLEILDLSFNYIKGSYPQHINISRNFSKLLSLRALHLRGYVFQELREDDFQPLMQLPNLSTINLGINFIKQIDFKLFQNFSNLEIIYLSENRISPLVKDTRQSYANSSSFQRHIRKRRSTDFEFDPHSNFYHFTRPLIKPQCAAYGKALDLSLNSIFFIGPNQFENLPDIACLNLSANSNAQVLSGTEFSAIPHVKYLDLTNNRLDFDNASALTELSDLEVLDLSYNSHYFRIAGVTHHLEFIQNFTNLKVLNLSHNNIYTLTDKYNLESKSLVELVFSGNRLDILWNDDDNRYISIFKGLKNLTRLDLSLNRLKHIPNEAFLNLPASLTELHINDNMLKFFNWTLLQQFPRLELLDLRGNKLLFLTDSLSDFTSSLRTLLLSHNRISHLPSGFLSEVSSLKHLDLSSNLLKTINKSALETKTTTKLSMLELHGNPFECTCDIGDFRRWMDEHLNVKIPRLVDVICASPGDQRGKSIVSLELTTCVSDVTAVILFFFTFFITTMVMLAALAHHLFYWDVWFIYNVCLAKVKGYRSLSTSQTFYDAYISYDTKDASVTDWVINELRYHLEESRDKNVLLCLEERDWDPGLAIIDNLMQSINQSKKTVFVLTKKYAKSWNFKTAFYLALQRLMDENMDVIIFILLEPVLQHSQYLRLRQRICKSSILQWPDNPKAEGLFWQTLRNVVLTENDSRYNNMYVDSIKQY
Description: as §1

pEC50 [1]: < 5.48
pEC50 ([2]; PBMCs from 15 healthy donors): 7.13
selectivity for TLR8 relative to TLR7 ([2]; PBMCs, TNFα vs IFNα EC50): > 45 fold
SMILES: CCCN(CCC)C(=O)C1=Cc2ccc(-c3ccc(C(=O)N4CCCC4)cc3)cc2N=C(N)C1 [VTX-2337, 2-amino-N,N-dipropyl-8-(4-(pyrrolidine-1-carbonyl)phenyl)-3H-benzo[b]azepine-4-carboxamide]
